21 compounds from ChEMBL document CHEMBL1201862, “PubChem BioAssay data set” (2004) can be followed below.

SMILES strings stand for the structures. Active and inactive are the calls of the source.

The nature of test [1]: C. albicans growth with fluconazole, confirmation, fluorescence, retest (AID 2467). Type of test: functional, cell-based.
Another test has as its system INS1. As to the kind of experiment: beta cell apoptosis inhibitors, cytokine rescue, dose response, luminescence, retest (AID 449756).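 Note: cell death triggered by IL-1 beta plus TNF-alpha plus IFN-gamma mixture; protective hits raise ATP signal compared with cytokine alone wells.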 Type of test: functional, cell-based. Conditions: Rattus norvegicus.
A short description of test [2]: NIH-3T3 fibroblast cytotoxicity, dose response, cytotoxicity control, cell-based, fluorescence, Alamar Blue, secondary assay (AID 2327).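 Note: NIH-3T3 mouse fibroblasts cultured with fluconazole at 8 µg/mL.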 Type of test: functional.
Test [3] addresses T1, Fatty acid synthase (Homo sapiens, UniProt P49327). As to the kind of experiment: FAS thioesterase domain inhibitors, dose response, biochemical, kinetic fluorescence intensity (AID 624326).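 Note: rate of fluorescence rise from hydrolysis of a fluorogenic O-methyl fluorescein ester substrate.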 The format is functional.
In test [4] the target is T1, Fatty acid synthase. The experiment in a line: FAS thioesterase domain inhibitors, dose response, biochemical, endpoint fluorescence intensity, uHTS hits (AID 624327).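 Note: fluorescence from hydrolysis of an O-methyl fluorescein acyl ester substrate by the enzyme.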 Type of test: functional.
The target in test [5] is T2, Corticotropin-releasing factor receptor 2/Corticotropin-releasing factor-binding protein (Homo sapiens, UniProt P24387+Q13324).
T2 sequence (Q13324 whole entry): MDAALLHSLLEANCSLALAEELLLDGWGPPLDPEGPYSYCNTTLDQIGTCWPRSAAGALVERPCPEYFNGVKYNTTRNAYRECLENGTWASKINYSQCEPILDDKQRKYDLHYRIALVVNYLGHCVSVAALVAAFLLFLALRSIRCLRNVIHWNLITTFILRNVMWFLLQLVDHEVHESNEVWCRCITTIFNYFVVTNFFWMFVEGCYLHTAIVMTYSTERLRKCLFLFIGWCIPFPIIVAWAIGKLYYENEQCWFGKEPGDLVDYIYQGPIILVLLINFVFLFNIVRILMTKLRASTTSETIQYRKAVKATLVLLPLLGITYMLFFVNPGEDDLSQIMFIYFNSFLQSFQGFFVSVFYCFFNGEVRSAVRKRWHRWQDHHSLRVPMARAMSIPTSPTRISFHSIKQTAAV
T2 sequence (P24387 whole entry): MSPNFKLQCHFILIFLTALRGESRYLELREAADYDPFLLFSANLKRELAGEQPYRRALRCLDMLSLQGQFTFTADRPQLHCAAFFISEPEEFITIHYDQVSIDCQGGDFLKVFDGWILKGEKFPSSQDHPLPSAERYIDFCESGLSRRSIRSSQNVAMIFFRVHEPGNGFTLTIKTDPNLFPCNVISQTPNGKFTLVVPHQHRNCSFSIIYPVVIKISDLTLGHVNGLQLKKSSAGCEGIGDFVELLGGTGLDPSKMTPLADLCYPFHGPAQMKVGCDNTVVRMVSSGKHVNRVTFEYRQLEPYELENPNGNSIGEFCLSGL
The experiment in a line: activators of CRF receptor 2 with binding protein – uHTS hits, confirmation (AID 602473). To be noted: read-out: EC50_Mean. The format is functional.

Test [6] concerns the target T3, Zinc finger protein mex-5 (Caenorhabditis elegans, UniProt Q9XUB2).
T3 sequence (Q9XUB2 whole entry): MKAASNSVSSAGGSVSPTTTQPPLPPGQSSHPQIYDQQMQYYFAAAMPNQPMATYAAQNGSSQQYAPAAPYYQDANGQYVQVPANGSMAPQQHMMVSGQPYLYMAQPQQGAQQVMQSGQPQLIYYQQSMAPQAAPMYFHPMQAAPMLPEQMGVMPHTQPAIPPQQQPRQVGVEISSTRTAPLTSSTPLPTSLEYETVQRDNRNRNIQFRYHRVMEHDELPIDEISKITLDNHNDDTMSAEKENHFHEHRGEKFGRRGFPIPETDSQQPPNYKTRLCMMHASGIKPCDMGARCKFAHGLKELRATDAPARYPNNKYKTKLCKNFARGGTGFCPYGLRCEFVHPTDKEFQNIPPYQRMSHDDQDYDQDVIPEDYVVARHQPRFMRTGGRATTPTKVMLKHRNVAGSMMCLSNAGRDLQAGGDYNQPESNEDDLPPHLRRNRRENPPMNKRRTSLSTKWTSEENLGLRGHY
As to the kind of experiment: MEX-5/TCR-2 RNA interaction inhibitors, dose response, biochemical, C. elegans, fluorescence polarization (AID 1960).

Test [7] in a line: control 3'UTR Renilla luciferase suppression, dose response, counter-screen for Shn3 inhibitor project, cell-based, Clone20-Shn3RL, cherry-picked (AID 624133). The format is functional.
Test [8] is described as follows: Shn3 3'UTR reporter inhibitors, dose response, cell-based, Clone20 osteoblasts, firefly luciferase, cherry-picked (AID 624132).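 Note: firefly luciferase luminescence from reporter carrying the Shn3 3'UTR in osteoblasts.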 Type of test: functional.
Test [9] concerns the target T4, Carboxy-terminal domain RNA polymerase II polypeptide A small phosphatase 1 (Homo sapiens, UniProt Q9GZU7).
T4 sequence (Q9GZU7 whole entry): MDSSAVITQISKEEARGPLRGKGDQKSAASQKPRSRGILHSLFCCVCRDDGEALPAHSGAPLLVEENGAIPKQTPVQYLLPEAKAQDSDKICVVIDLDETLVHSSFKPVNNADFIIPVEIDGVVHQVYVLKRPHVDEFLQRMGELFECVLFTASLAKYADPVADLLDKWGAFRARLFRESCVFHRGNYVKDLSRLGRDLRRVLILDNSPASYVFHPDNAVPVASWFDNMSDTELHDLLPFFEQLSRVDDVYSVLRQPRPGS
The experiment in a line: inhibitors of CTDSP1, concentration-response testing, biochemical assay, absorbance-based, actives from ultra-high-throughput screening (AID 540297). Type of test: functional.

A short description of test [10]: intracellular Trypanosoma cruzi inhibitors in host cells – cell-based, plate reader, cherry-pick samples, set 3, dose response (AID 651818).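 Note: compounds incubated with infected cells for about four days.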 The format is functional.
Test [11] in a line: P. falciparum Dd2 growth inhibitors, dose response, SYBR Green, cherry-picked samples (AID 1159567). The format is functional, cell-based.

T1 sequence (P49327 whole entry, the tested form may be a part): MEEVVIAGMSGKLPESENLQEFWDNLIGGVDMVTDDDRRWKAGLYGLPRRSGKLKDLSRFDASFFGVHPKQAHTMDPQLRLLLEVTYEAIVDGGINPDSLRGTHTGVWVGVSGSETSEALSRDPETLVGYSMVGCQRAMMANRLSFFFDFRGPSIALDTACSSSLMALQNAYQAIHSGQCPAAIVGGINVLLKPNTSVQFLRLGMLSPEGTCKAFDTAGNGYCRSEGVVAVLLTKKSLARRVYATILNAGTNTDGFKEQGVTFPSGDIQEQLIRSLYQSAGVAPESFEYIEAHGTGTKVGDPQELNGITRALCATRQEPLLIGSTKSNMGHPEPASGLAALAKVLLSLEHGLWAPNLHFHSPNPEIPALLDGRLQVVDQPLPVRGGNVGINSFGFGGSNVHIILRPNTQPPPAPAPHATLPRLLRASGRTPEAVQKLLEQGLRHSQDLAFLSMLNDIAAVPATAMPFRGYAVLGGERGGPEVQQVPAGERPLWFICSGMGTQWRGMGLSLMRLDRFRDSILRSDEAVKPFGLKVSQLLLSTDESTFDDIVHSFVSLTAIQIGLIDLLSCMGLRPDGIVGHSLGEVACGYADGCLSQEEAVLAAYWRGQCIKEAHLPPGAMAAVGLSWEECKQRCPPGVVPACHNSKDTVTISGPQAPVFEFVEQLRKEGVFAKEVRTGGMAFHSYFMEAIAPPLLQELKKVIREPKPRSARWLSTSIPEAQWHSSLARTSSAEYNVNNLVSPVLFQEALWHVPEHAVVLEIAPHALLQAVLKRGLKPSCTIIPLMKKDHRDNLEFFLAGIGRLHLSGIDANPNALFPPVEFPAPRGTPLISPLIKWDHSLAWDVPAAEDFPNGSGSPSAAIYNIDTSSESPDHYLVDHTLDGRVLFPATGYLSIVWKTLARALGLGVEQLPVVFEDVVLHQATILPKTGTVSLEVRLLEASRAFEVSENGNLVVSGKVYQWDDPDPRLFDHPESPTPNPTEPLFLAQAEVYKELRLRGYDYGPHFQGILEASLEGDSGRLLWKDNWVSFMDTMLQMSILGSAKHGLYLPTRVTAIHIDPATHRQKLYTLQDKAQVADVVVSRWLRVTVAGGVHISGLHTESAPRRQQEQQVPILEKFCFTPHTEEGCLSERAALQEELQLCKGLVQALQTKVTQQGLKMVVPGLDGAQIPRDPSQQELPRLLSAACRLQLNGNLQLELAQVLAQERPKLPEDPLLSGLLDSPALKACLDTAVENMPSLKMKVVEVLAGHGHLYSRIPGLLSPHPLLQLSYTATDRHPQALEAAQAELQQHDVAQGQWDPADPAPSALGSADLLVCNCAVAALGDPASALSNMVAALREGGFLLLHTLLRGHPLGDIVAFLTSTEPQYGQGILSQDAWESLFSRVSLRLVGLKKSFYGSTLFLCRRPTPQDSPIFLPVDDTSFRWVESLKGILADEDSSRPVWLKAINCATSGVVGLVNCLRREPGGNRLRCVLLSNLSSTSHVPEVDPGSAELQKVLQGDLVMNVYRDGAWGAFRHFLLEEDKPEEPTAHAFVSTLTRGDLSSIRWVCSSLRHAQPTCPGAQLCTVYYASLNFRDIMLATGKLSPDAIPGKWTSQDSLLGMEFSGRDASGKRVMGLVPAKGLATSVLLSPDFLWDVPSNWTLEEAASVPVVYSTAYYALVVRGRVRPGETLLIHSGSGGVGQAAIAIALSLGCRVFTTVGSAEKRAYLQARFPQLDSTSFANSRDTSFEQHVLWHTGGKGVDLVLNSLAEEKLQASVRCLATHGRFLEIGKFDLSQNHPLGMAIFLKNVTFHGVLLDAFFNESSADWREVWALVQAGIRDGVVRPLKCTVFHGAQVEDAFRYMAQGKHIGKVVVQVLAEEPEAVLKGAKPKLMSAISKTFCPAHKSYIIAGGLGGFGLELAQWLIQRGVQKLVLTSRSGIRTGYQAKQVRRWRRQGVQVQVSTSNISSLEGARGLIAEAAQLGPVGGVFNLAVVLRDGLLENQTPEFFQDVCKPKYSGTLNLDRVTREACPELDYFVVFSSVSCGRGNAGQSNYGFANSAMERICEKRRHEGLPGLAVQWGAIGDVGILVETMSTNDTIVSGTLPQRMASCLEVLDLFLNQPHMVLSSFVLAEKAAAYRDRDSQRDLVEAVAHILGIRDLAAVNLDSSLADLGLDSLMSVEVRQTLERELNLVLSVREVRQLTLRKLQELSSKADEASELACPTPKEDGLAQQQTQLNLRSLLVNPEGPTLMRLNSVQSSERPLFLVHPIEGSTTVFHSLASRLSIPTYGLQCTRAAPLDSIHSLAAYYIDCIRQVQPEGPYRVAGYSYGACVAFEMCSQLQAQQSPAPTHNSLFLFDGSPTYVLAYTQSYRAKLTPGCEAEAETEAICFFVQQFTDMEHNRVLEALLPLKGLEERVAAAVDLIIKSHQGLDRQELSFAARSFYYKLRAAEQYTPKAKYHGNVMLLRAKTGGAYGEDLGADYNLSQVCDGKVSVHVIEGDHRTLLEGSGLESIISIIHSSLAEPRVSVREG

For the compound `C=CCN1C(=O)N/C(=C/c2ccc(N3CCOCC3)o2)C1=O`, the values for the EC50 in [1] and in [2] were 2.15 µM (active) and 20 µM (active), respectively. In addition, the AC50 (in general, the concentration giving half of the maximal activity seen) with INS1 was > 260 µM (inactive).

For `CN1CCc2nc(SCc3ccccc3Br)c(C#N)cc2C1`, the IC50 (as a rule, the concentration needed to halve the response being measured) on Fatty acid synthase [3] is 6.01 µM (active); on Fatty acid synthase [4] it was 7.9 µM (active).

Regarding `CN=C(S)N1N=C(c2ccccc2)CC1c1ccccc1Cl` (stereo not drawn), the figures for the EC50 in test [1] and in test [2] were > 38 µM (not active) and > 160 µM (inactive), respectively.

Turning to `Cc1cccc(C2CC3(CC(C)(C)N=C(S)N3)Oc3cc(O)ccc32)c1` (stereo not drawn), the EC50 in test [1] is 2.44 µM (active); in test [2], > 150 µM (inactive).

Consider `O=C1NC(=O)N(c2ccc(F)cc2)C(=O)/C1=C/c1c[nH]c2ccccc12`, for which the EC50 is 10.3 µM (active) in test [5] and > 300 µM (inconclusive) in test [6].

With `Cc1cccc(N2CCN(C(=O)COc3ccc4ccc(=O)oc4c3)CC2)c1C`, the IC50 on Fatty acid synthase [3] is 5.23 µM (active); at Fatty acid synthase [4] it was 3.84 µM (active).

For `O=C(c1cc2cc([N+](=O)[O-])ccc2oc1=O)N1CCN(C2CCCCC2)CC1`, the IC50 was 9.68 µM (active) at Fatty acid synthase [3] and 13.9 µM (active) at Fatty acid synthase [4].

Turning to `COc1ccc(/C=C(\NC(=O)c2ccc([N+](=O)[O-])cc2)C(=O)N2CCOCC2)cc1`, the results for the IC50 at Fatty acid synthase [3] and on Fatty acid synthase [4] were 0.848 µM (active) and 1.34 µM (active), respectively.

`COc1ccc(OC)c(C(c2nnnn2Cc2ccccc2)N2CCN(C3CCCCC3)CC2)c1` (stereo not drawn): the AC50 in [7] is 30.4 µM (active); in test [8], > 70 µM (inactive).

In the case of `CCc1cc2c(=O)oc(-c3ccccc3F)nc2s1`, the IC50 on Fatty acid synthase [3] was 1.62 µM (active); at Fatty acid synthase [4], 2.48 µM (active).

With `COC(=O)c1cc(C(=O)Nc2nnc(CC(C)(C)C)s2)cc([N+](=O)[O-])c1`, the IC50 on Fatty acid synthase [3] was 11.2 µM (active); at Fatty acid synthase [4], 12.7 µM (active).

On to `CCN(C(=O)COC(=O)c1cc([N+](=O)[O-])ccc1N1CCOCC1)C1CCCCC1`, for which the concentration for half-maximal inhibition (IC50) on Fatty acid synthase [3] is 4.08 µM (active); on Fatty acid synthase [4], 1.13 µM (active).

With `Cc1ccc(NC(=O)CN2C(=O)CSc3ccc(S(=O)(=O)N4CCCCC4)cc32)cc1`, the IC50 on Fatty acid synthase [3] was 9.65 µM (active); at Fatty acid synthase [4], 14.9 µM (active); in test [9] it was 4.3 µM (active).

Regarding `Cc1cc(C(=O)Nc2cccc3c2O[C@@H](CN(C)Cc2ccc(-c4ccccc4)cc2)[C@@H](C)CN([C@H](C)CO)C3=O)n(C)n1`, in test [10], the AC50 was 5.16 µM (active).

For `C[C@H]1CN([C@@H](C)CO)C(=O)c2cc(NS(=O)(=O)c3ccc(Cl)cc3)ccc2O[C@H]1CN(C)Cc1ccc(C(=O)Nc2ccccc2N)cc1`, in test [10], the AC50 was 1.96 µM (active).

With `COc1ccc(CN(C)C[C@@H]2Oc3c(NC(=O)Nc4ccc(C(F)(F)F)cc4)cccc3C(=O)N([C@H](C)CO)C[C@@H]2C)cc1`, the AC50 in test [10] is 1.42 µM (active).

On to `C[C@H](CO)N1C[C@H](C)[C@@H](CN(C)Cc2ccc(C(=O)Nc3ccccc3N)cc2)Oc2c(NS(=O)(=O)c3ccc(Cl)cc3)cccc2C1=O`, for which the half-maximal activity concentration (AC50) in [10] is 1.41 µM (active).

As for `C[C@H]1CN([C@@H](C)CO)C(=O)c2cc(NC(=O)Nc3cccc4ccccc34)ccc2O[C@@H]1CN(C)Cc1ccc(Oc2ccccc2)cc1`, the concentration at half-maximal activity (AC50) was 7.39 µM (active) in test [11] and 4.66 µM (active) in test [10].

For `C[C@H]1CN([C@@H](C)CO)C(=O)c2cccc(NC(=O)CCCCCC(=O)Nc3ccccc3N)c2O[C@@H]1CN(C)Cc1ccc(-c2ccccc2)cc1`, the AC50 in test [10] was 1.71 µM (active).

As for `C[C@H]1CN([C@@H](C)CO)C(=O)Cc2cc(NC(=O)Nc3ccc(C(F)(F)F)cc3)ccc2O[C@H]1CN(C)Cc1ccc(C(=O)Nc2ccccc2N)cc1`, the AC50 in test [10] was 2.13 µM (active).

Regarding `O=C(CNc1ccccc1F)N/N=C/C1CC=CCC1` (stereo not drawn), the EC50 in [1] is > 38 µM (not active); in test [2], > 160 µM (inactive).
